Here are results for 3 molecules from US20150141336A1, “Pancreatic Peptide Compounds and Use” (Novo Nordisk A/S, priority 2012, published 2015).

The term half-life denotes the time in which the quantity being followed falls by half.

Numbered stars: 1 amine (or outer) side, 2 acyl side, 3 side chain; on linkers, the order of the positions; unused ones are H or OH. Side chains are listed from the residue outwards. Peptide text beside a SMILES is read from it. * marks the point of attachment. C18 diacid = O=C(O)CCCCCCCCCCCCCCCCC(=O)*; γGlu = O=C(O)[C@H](CCC(=O)[*:2])N[*:1]; AEEA = NCCOCCOCC(=O)O

A short description of this data set: Assay (II) PK i.v. minipig, in vivo half-life. The settings on record: male, Göttingen, minipig, iv, Half-life minipig, Assay (II). Set-up: species or system Göttingen mini-pigs. In a few lines:
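Male Göttingen mini-pigs (18–22 kg, n=5) received 6 nmol/kg i.v. via central catheter, formulated in 50 mM K2HPO4, 0.05% tween 80, pH 8.0. EDTA plasma sampled pre-dose to 240 h, quantified by TFC/LC/MS/MS (MRM, range 1-2000 nmol/l); half-life from non-compartmental analysis per animal.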
`CC[C@H](C)[C@H](NC(=O)[C@H](Cc1ccc(O)cc1)NC(=O)[C@H](CCCNC(=N)N)NC(=O)[C@H](CCCNC(=N)N)NC(=O)[C@H](CC(C)C)NC(=O)[C@H](CC(=O)O)NC(=O)[C@H](C)NC(=O)[C@H](C)NC(=O)[C@H](Cc1ccc(O)cc1)NC(=O)[C@H](CCC(N)=O)NC(=O)[C@H](C)NC(=O)[C@H](CCSC)NC(=O)[C@H](CCC(N)=O)NC(=O)[C@H](CCC(=O)O)NC(=O)[C@@H]1CCCN1C(=O)[C@@H](NC(=O)[C@H](C)NC(=O)[C@H](CC(N)=O)NC(=O)[C@H](CC(=O)O)NC(=O)CNC(=O)[C@@H]1CCCN1C(=O)[C@H](Cc1ccc(O)cc1)NC(=O)[C@@H](NC(=O)[C@@H]1CCCN1C(=O)[C@H](CCC(=O)O)NC(=O)[C@H](CC(C)C)NC(=O)[C@@H]1CCCN1)C(C)C)[C@@H](C)O)C(=O)N[C@@H](CCCCNC(=O)COCCOCCNC(=O)COCCOCCNC(=O)CC[C@H](NC(=O)CCCCCCCCCCCCCCCCC(=O)O)C(=O)O)C(=O)N[C@@H](CCSC)C(=O)N[C@@H](CC(C)C)C(=O)N[C@H](C(=O)N[C@@H](CCCNC(=N)N)C(=O)N1CCC[C@H]1C(=O)N[C@@H](CCCNC(=N)N)C(=O)N[C@@H](Cc1ccc(O)cc1)C(N)=O)[C@@H](C)O` [Compound E] (H-PLEPVYPGDNATPEQMAQYAADLRRYIK([AEEA-AEEA-γGlu-C18 diacid])MLTRPRY-NH2; N-terminus and C-terminus assumed): the half-life is 110 h. With `CC[C@H](C)[C@H](NC(=O)[C@H](Cc1ccc(O)cc1)NC(=O)[C@H](CCCNC(=N)N)NC(=O)[C@H](CCCNC(=N)N)NC(=O)[C@H](CC(C)C)NC(=O)[C@H](CC(=O)O)NC(=O)[C@H](C)NC(=O)[C@H](C)NC(=O)[C@H](Cc1ccc(O)cc1)NC(=O)[C@H](CCC(N)=O)NC(=O)[C@H](C)NC(=O)[C@H](CCSC)NC(=O)[C@H](CCC(N)=O)NC(=O)[C@H](CCC(=O)O)NC(=O)[C@@H]1CCCN1C(=O)[C@H](CCCCNC(=O)COCCOCCNC(=O)COCCOCCNC(=O)CC[C@H](NC(=O)CCCCCCCCCCCCCCCCC(=O)O)C(=O)O)NC(=O)[C@H](C)NC(=O)[C@H](CC(N)=O)NC(=O)[C@H](CC(=O)O)NC(=O)CNC(=O)[C@@H]1CCCN1C(=O)[C@H](Cc1ccc(O)cc1)NC(=O)[C@@H](NC(=O)[C@@H]1CCCN1C(=O)[C@H](CCC(=O)O)NC(=O)[C@H](CC(C)C)NC(=O)[C@@H]1CCCN1)C(C)C)C(=O)N[C@@H](CC(N)=O)C(=O)N[C@@H](CCSC)C(=O)N[C@@H](CC(C)C)C(=O)N[C@H](C(=O)N[C@@H](CCCNC(=N)N)C(=O)N1CCC[C@H]1C(=O)N[C@@H](CCCNC(=N)N)C(=O)N[C@@H](Cc1ccc(O)cc1)C(N)=O)[C@@H](C)O` [Compound U] (H-PLEPVYPGDNAK([AEEA-AEEA-γGlu-C18 diacid])PEQMAQYAADLRRYINMLTRPRY-NH2; N-terminus and C-terminus assumed) the figure was 23 h; with `CC[C@H](C)[C@H](NC(=O)[C@H](Cc1ccc(O)cc1)NC(=O)[C@H](CCCNC(=N)N)NC(=O)[C@H](CCCNC(=N)N)NC(=O)[C@H](CC(C)C)NC(=O)[C@H](CC(=O)O)NC(=O)[C@H](C)NC(=O)[C@H](C)NC(=O)[C@H](Cc1ccc(O)cc1)NC(=O)[C@H](CCC(N)=O)NC(=O)[C@H](C)NC(=O)[C@H](CCSC)NC(=O)[C@H](CCC(N)=O)NC(=O)[C@H](CCC(=O)O)NC(=O)[C@@H]1CCCN1C(=O)[C@@H](NC(=O)[C@H](C)NC(=O)[C@H](CC(N)=O)NC(=O)[C@H](CC(=O)O)NC(=O)CNC(=O)[C@@H]1CCCN1C(=O)[C@H](Cc1ccc(O)cc1)NC(=O)[C@H](CCCCNC(=O)COCCOCCNC(=O)COCCOCCNC(=O)CC[C@H](NC(=O)CCCCCCCCCCCCCCCCC(=O)O)C(=O)O)NC(=O)[C@@H]1CCCN1C(=O)[C@H](CCC(=O)O)NC(=O)[C@H](CC(C)C)NC(=O)[C@@H]1CCCN1)[C@@H](C)O)C(=O)N[C@@H](CC(N)=O)C(=O)N[C@@H](CCSC)C(=O)N[C@@H](CC(C)C)C(=O)N[C@H](C(=O)N[C@@H](CCCNC(=N)N)C(=O)N1CCC[C@H]1C(=O)N[C@@H](CCCNC(=N)N)C(=O)N[C@@H](Cc1ccc(O)cc1)C(N)=O)[C@@H](C)O` [Compound AB], 44 h.
